compound,measurement,setting,value
COc1ccc2nc(SCc3ncc(C)c(OC)c3C)[nH]c2c1,solubility (mole fraction),"in ethanol, 277.65 K",0.0029
same,solubility (mole fraction),"in ethanol, 282.65 K",0.00371
same,solubility (mole fraction),"in ethanol, 288.15 K",0.00483
same,solubility (mole fraction),"in ethanol, 293.15 K",0.00614
same,solubility (mole fraction),"in ethanol, 298.05 K",0.00773
same,solubility (mole fraction),"in ethanol, 302.15 K",0.00935
same,solubility (mole fraction),"in ethanol, 307.65 K",0.012
same,solubility (mole fraction),"in ethanol, 313.15 K",0.0155
same,solubility (mole fraction),"in ethanol, 317.65 K",0.0189
same,solubility (mole fraction),"in ethanol, 322.15 K",0.0231
same,solubility (mole fraction),"in ethanol, 327.65 K",0.0293
same,solubility (mole fraction),"in ethanol, 333.15 K",0.0372
same,solubility (mole fraction),"in ethyl acetate, 277.65 K",0.0117
same,solubility (mole fraction),"in ethyl acetate, 282.65 K",0.0168
same,solubility (mole fraction),"in ethyl acetate, 288.15 K",0.0244
same,solubility (mole fraction),"in ethyl acetate, 293.15 K",0.0337
same,solubility (mole fraction),"in ethyl acetate, 298.05 K",0.0455
same,solubility (mole fraction),"in ethyl acetate, 302.15 K",0.0577
same,solubility (mole fraction),"in ethyl acetate, 307.65 K",0.0781
same,solubility (mole fraction),"in ethyl acetate, 313.15 K",0.104
same,solubility (mole fraction),"in ethyl acetate, 317.65 K",0.129
same,solubility (mole fraction),"in ethyl acetate, 322.15 K",0.16
same,solubility (mole fraction),"in ethyl acetate, 327.65 K",0.203
same,solubility (mole fraction),"in ethyl acetate, 333.15 K",0.256
